This note sets out measurements from ChEMBL document CHEMBL5131395 (Eur J Med Chem, 2022).

pIC50: −log10 of the molar value. The source made the active and inactive calls. The calls are words filed in the database; no cut-off is given here. Bounds are passed on as bounds.

Series [1] addresses Autotaxin (Homo sapiens, UniProt Q13822). In words: Inhibition of human ATX using FS-3 as substrate preincubated for 45 mins followed by substrate addition measured every 1 min for 30 mins by fluorescence based microplate reader analysis.
A short description of series [2]: AUC (0 to t) in rat at 60 mg/kg, po by LC-MS/MS analysis. The series is classed as ADME, organism-based. Details: dose 60 mg/kg, route po. Particulars: in vivo.
Series [3] can be described thus: AUC (0 to infinity) in rat at 60 mg/kg, po by LC-MS/MS analysis. The series is classed as ADME, organism-based. Details: time infinity, dose 60 mg/kg, route po. Particulars: in vivo.
Series [4] can be described thus: Half life in rat at 60 mg/kg, po by LC-MS/MS analysis. The series is classed as ADME, organism-based. To be noted: in vivo.
Series [5] is described as follows: Tmax in rat at 60 mg/kg, po by LC-MS/MS analysis. The series is classed as ADME, organism-based. To be noted: in vivo.
Series [6] can be described thus: Cmax in rat at 60 mg/kg, po by LC-MS/MS analysis. Format: ADME, organism-based. Also on record: dose 60 mg/kg, route po. To be noted: in vivo.
The nature of series [7]: Clearance in rat at 60 mg/kg, po by LC-MS/MS analysis. The series is classed as ADME, organism-based. To be noted: in vivo.
Series [8] can be described thus: Cytotoxicity against human HBE cells assessed as lethal dose. The series is classed as toxicity, cell-based. Particulars: HBE cells (epithelial cell line), read-out: LD50 (the source's name).
The test system of series [9] is Mus musculus. In words: Antifibrotic activity against BLM induced C57BL/6J mouse lung fibrosis model assessed as recovery of body weight at 30 to 60 mg/kg, ip pretreated with compound administered once daily for 3 days followed by BLM treatment and measured after 28 days. Format: functional, organism-based. To be noted: dose 30-60 mg/kg, time 31.0 day.
For series [10], the system named is Mus musculus. Description: Antifibrotic activity against BLM induced C57BL/6J mouse lung fibrosis model assessed as improvement in lung architecture by measuring appearance of fibrotic lesions at 30 to 60 mg/kg, ip pretreated with compound administered once daily for 3 days followed by BLM treatment and measured after 28 days by Masson staining based microscopic analysis. The series is classed as functional, organism-based. To be noted: dose 30-60 mg/kg, time 31.0 day.

Series [11] has as its system Mus musculus. In words: Antifibrotic activity against BLM induced C57BL/6J mouse lung fibrosis model assessed as improvement in lung architecture by measuring appearance of conterminous fibrotic walls at 30 to 60 mg/kg, ip pretreated with compound administered once daily for 3 days followed by BLM treatment and measured after 28 days by Masson staining based microscopic analysis. Format: functional, organism-based. To be noted: dose 30-60 mg/kg, time 31.0 day.

Series [12] has as its system Mus musculus. In words: Antifibrotic activity against BLM induced C57BL/6J mouse lung fibrosis model assessed as improvement in lung architecture by measuring appearance of fibrotic lesions at 30 to 60 mg/kg, ip pretreated with compound administered once daily for 3 days followed by BLM treatment and measured after 28 days by hematoxylin and eosin staining based microscopic analysis. The series is classed as functional, organism-based. To be noted: dose 30-60 mg/kg, time 31.0 day.

The test system of series [13] is Mus musculus. In words: Antifibrotic activity against BLM induced C57BL/6J mouse lung fibrosis model assessed as improvement in lung architecture by measuring appearance of conterminous fibrotic walls at 30 to 60 mg/kg, ip pretreated with compound administered once daily for 3 days followed by BLM treatment and measured after 28 days by hematoxylin and eosin staining based microscopic analysis. The series is classed as functional, organism-based. To be noted: dose 30-60 mg/kg, time 31.0 day.

Series [14] is described as follows: In vivo inhibition of ATX in lung homogenate of BLM induced C57BL/6J mouse lung fibrosis model assessed as reduction in ATX activity using FS-3 as substrate at 30 mg/kg, ip by fluorescence based microplate reader analysis (reference value: 7.78%). The series is classed as functional.
Series [15] is described as follows: In vivo inhibition of ATX in lung homogenate of BLM induced C57BL/6J mouse lung fibrosis model assessed as reduction in ATX activity using FS-3 as substrate at 60 mg/kg, ip by fluorescence based microplate reader analysis (reference value: 7.78%). Format: functional.
Series [16] can be described thus: In vivo inhibition of ATX in BALF of BLM induced C57BL/6J mouse lung fibrosis model assessed as reduction in ATX activity using FS-3 as substrate at 30 to 60 mg/kg, ip by fluorescence based microplate reader analysis (reference value: 4.50%). The series is classed as functional, Bronchoalveolar lavage. To be noted: dose 30-60 mg/kg.
The nature of series [17]: Downregulation of TGF-beta expression in lung tissue of BLM induced C57BL/6J mouse lung fibrosis model assessed as fold reduction in TGF-beta expression level at 30 to 60 mg/kg, ip by qRT-PCR analysis. Format: functional. To be noted: dose 30-60 mg/kg. A general note: Real-time PCR tracks product formation cycle by cycle.
Series [18] is described as follows: Downregulation of IL-6 expression in lung tissue of BLM induced C57BL/6J mouse lung fibrosis model assessed as fold reduction in IL-6 expression level at 30 to 60 mg/kg, ip by qRT-PCR analysis. Format: functional. Particulars: dose 30-60 mg/kg.
The nature of series [19]: Downregulation of TNF-alpha expression in lung tissue of BLM induced C57BL/6J mouse lung fibrosis model assessed as fold reduction in TNF-alpha expression level at 30 to 60 mg/kg, ip by qRT-PCR analysis. Format: functional. To be noted: dose 30-60 mg/kg.
The test system of series [20] is Mus musculus. Description: Antifibrotic activity against BLM induced C57BL/6J mouse lung fibrosis model assessed as improvement in lung architecture by measuring appearance of fibrotic lesions at 60 mg/kg, ip pretreated with compound administered once daily for 3 days followed by BLM treatment and measured after 28 days by Masson staining based microscopic analysis. The series is classed as functional, organism-based. Particulars: time 31.0 day.

Series [21] deals with Mus musculus. Description: Antifibrotic activity against BLM induced C57BL/6J mouse lung fibrosis model assessed as improvement in lung architecture by measuring appearance of conterminous fibrotic walls at 60 mg/kg, ip pretreated with compound administered once daily for 3 days followed by BLM treatment and measured after 28 days by Masson staining based microscopic analysis. Particulars: time 31.0 day. Format: functional, organism-based.

The test system of series [22] is Mus musculus. In words: Antifibrotic activity against BLM induced C57BL/6J mouse lung fibrosis model assessed as improvement in lung architecture by measuring appearance of fibrotic lesions at 60 mg/kg, ip pretreated with compound administered once daily for 3 days followed by BLM treatment and measured after 28 days by hematoxylin and eosin staining based microscopic analysis. Format: functional, organism-based. Particulars: time 31.0 day.

In series [23] the test system is Mus musculus. Description: Antifibrotic activity against BLM induced C57BL/6J mouse lung fibrosis model assessed as improvement in lung architecture by measuring appearance of conterminous fibrotic walls at 60 mg/kg, ip pretreated with compound administered once daily for 3 days followed by BLM treatment and measured after 28 days by hematoxylin and eosin staining based microscopic analysis. The series is classed as functional, organism-based. To be noted: time 31.0 day.

The nature of series [24]: Downregulation of TGF-beta expression in lung tissue of BLM induced C57BL/6J mouse lung fibrosis model assessed as fold reduction in TGF-beta expression level at 60 mg/kg, ip by qRT-PCR analysis. The series is classed as functional.
Series [25] is described as follows: Downregulation of IL-6 expression in lung tissue of BLM induced C57BL/6J mouse lung fibrosis model assessed as fold reduction in IL-6 expression level at 60 mg/kg, ip by qRT-PCR analysis. The series is classed as functional.
Series [26] is described as follows: Downregulation of TNF-alpha expression in lung tissue of BLM induced C57BL/6J mouse lung fibrosis model assessed as fold reduction in TNF-alpha expression level at 60 mg/kg, ip by qRT-PCR analysis. The series is classed as functional.
In series [27] the test system is Mus musculus. Description: Antifibrotic activity against BLM induced C57BL/6J mouse lung fibrosis model assessed as recovery of body weight at 60 mg/kg, ip pretreated with compound administered once daily for 3 days followed by BLM treatment and measured after 28 days. The series is classed as functional, organism-based. To be noted: time 31.0 day.

On to `CCn1cc(NC(=O)NCc2ccc(Cl)cc2)c2cc(-c3nc(CN(CCO)CCO)cs3)ccc21`, for which the pIC50 in series [1] was 7.52.
Regarding `CCn1cc(NC(=O)OCc2cc(Cl)cc(Cl)c2)c2cc(-c3nc(CN4CCOCC4)cs3)ccc21`, the AUCt in series [2] was 0.24 µg·h/mL. In addition, the AUC in series [3] came to 0.24 µg·h/mL. For the same compound, the half-life in series [4] is 154 min. Moreover, the Tmax in [5] came out at 2.67 h. In addition, the Cmax in series [6] (read-out: Cmax) amounted to 50 ng/mL. In [7], this compound showed a CL/F of 6.35 mL/min/kg.
For `CCn1cc(NC(=O)NCc2ccc(OC)c(Cl)c2)c2cc(-c3nc(CN(CCO)CCO)cs3)ccc21`, in [1], the pIC50 is 8.66. The compound further registered an AUC(0-t) in series [2] of 670 ng·h/mL. Besides, the AUC in [3] was found to be 0.68 µg·h/mL. The compound further gave a half-life in series [4] of 187 min. Further, the time of peak concentration (Tmax) in series [5] stood at 3.91 h. Moreover, in series [6], the highest level (Cmax) was 131 ng/mL. For the same compound, in series [8], the CC50 was over 20 µM. Further, the outcome in [9], in series [10], in [11], in [12] and in series [13] was Active. Also, the inhibition in vivo at 30 mg/kg in series [14] stood at 5.59%. The inhibition in vivo at 60 mg/kg in series [15] was 5.03%. For the same compound, the “inhibition (INH)” value in series [16] was 3.23%. The “fold change (FC)” value in [17], in [18] and in series [19] was 2 each time.
In the case of `CCc1nc2c(C)cc(N3CCN(CC(=O)N4CC(O)C4)CC3)cn2c1N(C)c1nc(-c2ccc(F)cc2)c(C#N)s1` [ZIRITAXESTAT], the result in [20], in [21], in series [22], in series [23] and in series [27] was Active. The inhibition in vivo at 60 mg/kg in [15] came to 5.54%. Also, the “fold change (FC)” value in series [24], in series [25] and in [26] was 2 throughout.

For orientation: pIC50 means the IC50 on a negative log10 scale, so that one unit is a factor of ten. Broadly, the AUC is the area under the concentration-time curve, a measure of exposure. A low value points to low exposure. As a reminder, the half-life is the time in which the quantity being followed falls by half. Higher therefore signals slow decline. In general, Tmax refers to the time from dosing to the highest level. By Cmax is commonly meant the maximum level reached in the sampled fluid or tissue. By CL/F is commonly meant clearance divided by bioavailability, as obtained after extravascular dosing. As usually defined, the AUC(0-t) is exposure summed from dosing to a finite time, without extrapolation to infinity. High values mean high exposure, low ones low exposure. By inhibition in vivo is commonly meant the drop in the measured response relative to a control, in per cent.
